Source: patent US9061069B2, “Use of constrained peptide mimic oligomers as vectorization agents” (CENTRE NATIONAL DE LA RECHERCHE SCIENTIFIQUE, priority 2009, dated 2015)
Where a SMILES comes first, the peptide text is derived from it. [ ]: non-standard residue; d: D form. The star is where a group is joined. Sta = CC(C)C[C@H](N)[C@@H](O)CC(=O)O; Isovaleryl = CC(C)CC(=O)*

Key:
[1] = system: cells of the line MDA-MB-231; test: cytotoxicity, cellular viability test MTT; format: cell-based, human; conditions: incubation of 5 days, 10^-5M
Description: The cytotoxicity of this novel class of molecules has also been determined in cells of the line MDA-MB-231 by using a cellular viability diagnostic test, MTT.

[2] = system: cancerous cells (MDA-MB-231, MCF7, LNCaP, HCT116, SaOs2); test: cell growth / proliferation of tumoral lines, incubation for 5 days; format: cell-based; conditions: inhibitor alone
Experimental: FIG. 2 describes the cell growth (in percentage of number of cells with respect to a pepstatin control) of cancerous cells (mammary […] and MCF7, prostatics LNCaP, colic HCT116, osteoblastics SaOs2) as a function of their incubation for 5 days with 1 oligomer of AMPA (4497), pepstatin alone (Peps), [Val^1]-Pepstatin bonded to arginine (4567) and two conjugate inhibitors of cathepsin D-oligomer of AMPA bonded to an arginine residue (4564 and 4463). The negative percentages correspond to a reduction in the number of cells with respect to the initial cellular seeding.
FIG. 3 describes the cell growth (in percentage of number of cells with respect to a pepstatin control) of cancerous cells (MDA-MB-231, MCF7, LNCaP, HCT116, SaOs2) as a function of their incubation for 5 days with 1 oligomer of AMPA (4497), [Val^1]-Pepstatin bonded to conjugated arginine 5 (4567) and 4 [Val^1]-Pepstatin-oligomer of AMPA bonded to a lysine or arginine residue (4461, 4562, 4463, 4564). The negative percentages correspond to a reduction in the number of cells with respect to the initial cellular seeding.
The application of these vectors within the context of a tumoral pathology is now explored. […]

SMILES | effect on cellular viability (MTT) [1] | effect on the proliferation of tumoral cells [2]
NC(=O)CN1C(=O)[C@H](NC(=O)CN2C(=O)[C@H](NC(=O)COCCOCCNC(=S)Nc3ccc4c(c3)C(=O)OC43c4ccc(O)cc4Oc4cc(O)ccc43)CSc3ccccc32)CSc2ccccc21 [JMV4131] | significant effect on cellular viability | –
CC(C)CC(=O)N[C@H](C(=O)N[C@H](C(=O)N[C@@H](CC(C)C)[C@@H](O)CC(=O)N[C@@H](C)C(=O)N[C@@H](CC(C)C)[C@@H](O)CC(=O)O)C(C)C)C(C)C [pepstatin A] (Isovaleryl-VV[Sta]A[Sta]-OH) | – | inactive
